Assay results published in patent US20260285875A1, “INHIBITORS OF PARG” (858 Therapeutics, Inc., priority 2023, published 2026).
pIC50: −log10 of the molar value.

Molecular target: T1, cellular PARG (Homo sapiens, UniProt Q86W56)
T1 construct: endogenous in cells; host or cells: HeLa
Assay: Nuclear PAR accumulation assay (immunofluorescence high-content imaging, MMS-treated HeLa cells)
Format: cell-based
Settings: 1 hour compound then MMS 50 μg/mL for an additional hour
In short: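 HeLa cells pretreated with compound for 1 h at 37° C, then given 50 μg/mL MMS for another hour. After methanol fixation, PAR was immunostained with DAPI nuclear counterstain; per-nucleus intensity and percent PAR-positive cells were imaged at 20× (≥1,000 cells/well). IC50 from four-parameter logistic fit.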

T1 sequence (Q86W56 whole entry): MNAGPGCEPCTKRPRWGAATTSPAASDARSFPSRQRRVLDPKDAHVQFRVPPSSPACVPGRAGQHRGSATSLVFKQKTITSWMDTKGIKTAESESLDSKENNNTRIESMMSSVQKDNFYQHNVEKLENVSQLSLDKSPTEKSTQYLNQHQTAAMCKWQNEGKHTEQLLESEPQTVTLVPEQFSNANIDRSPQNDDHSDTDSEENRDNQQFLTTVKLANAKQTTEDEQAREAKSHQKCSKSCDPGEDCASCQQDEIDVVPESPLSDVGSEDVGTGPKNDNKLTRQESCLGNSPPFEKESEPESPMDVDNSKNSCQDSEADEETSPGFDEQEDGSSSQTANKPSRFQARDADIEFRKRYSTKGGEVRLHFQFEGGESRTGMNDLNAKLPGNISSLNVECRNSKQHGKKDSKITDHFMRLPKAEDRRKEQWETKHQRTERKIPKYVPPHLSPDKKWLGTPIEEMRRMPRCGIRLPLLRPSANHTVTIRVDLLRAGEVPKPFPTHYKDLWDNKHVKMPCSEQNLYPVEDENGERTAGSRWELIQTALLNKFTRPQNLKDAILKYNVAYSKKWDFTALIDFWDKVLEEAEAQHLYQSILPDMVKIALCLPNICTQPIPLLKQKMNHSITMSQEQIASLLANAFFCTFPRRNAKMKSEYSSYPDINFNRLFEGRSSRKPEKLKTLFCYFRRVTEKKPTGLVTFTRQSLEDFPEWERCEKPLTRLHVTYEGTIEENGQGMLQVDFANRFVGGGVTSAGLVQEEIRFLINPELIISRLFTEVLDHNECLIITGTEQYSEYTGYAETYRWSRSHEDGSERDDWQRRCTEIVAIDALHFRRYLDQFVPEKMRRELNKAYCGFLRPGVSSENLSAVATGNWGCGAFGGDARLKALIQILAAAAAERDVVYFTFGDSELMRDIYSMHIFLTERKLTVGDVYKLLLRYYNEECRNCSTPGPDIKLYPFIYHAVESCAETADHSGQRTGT

SMILES	pIC50
C[C@H]1CN(c2cc(S(=O)(=O)NC3(C)CC3)cc3c2N2CC(C)(C)N=C2N(C)C3=O)C[C@H](C)N1 [Example 54, 9-((3S,5S)-3,5-dimethylpiperazin-1-yl)-2,2,4-trimethyl-N-(1-methylcyclopropyl)-5-oxo-1,2,4,5-tetrahydroimidazo[1,2-a]quinazoline-7-sulfonamide]	6.00 to 7.00
Cc1cnn2c(C#C[C@@H]3CN=C4N(C)C(=O)c5cc(S(=O)(=O)NC6(C)CC6)ccc5N43)cnc2c1 [Example 182, (R)-4-methyl-N-(1-methylcyclopropyl)-1-((7-methylimidazo[1,2-b]pyridazin-3-yl)ethynyl)-5-oxo-1,2,4,5-tetrahydroimidazo[1,2-a]quinazoline-7-sulfonamide]	> 7.00
CN1C(=O)c2cc(S(=O)(=O)NC3(C)CC3)ccc2N2C1=NCC2C#Cc1ccnc(C(F)(F)F)c1 (stereo not shown) [Example 226, 4-methyl-N-(1-methylcyclopropyl)-5-oxo-1-((2-(trifluoromethyl)pyridin-4-yl)ethynyl)-1,2,4,5-tetrahydroimidazo[1,2-a]quinazoline-7-sulfonamide]	6.00 to 7.00
[2H]C([2H])(c1cnn(C)c1)N1C(=O)c2cc(S(=O)(=O)NC3(C)CC3)c(N(C)C)cc2N2C1=N[C@H]1CCC[C@H]12 [Example 214, (7aS,10aR)-2-(dimethylamino)-6-((1-methyl-1H-pyrazol-4-yl)methyl-d2)-N-(1-methylcyclopropyl)-5-oxo-6,7a,8,9,10,10a-hexahydro-5H-cyclopenta[4,5]imidazo[1,2-a]quinazoline-3-sulfonamide]	5.00 to 6.00
CCN1C(=O)c2cc(S(=O)(=O)NC3(C)CC3)ccc2N2C1=NC[C@H]2C#Cc1cc(C2CC2)nn1C [Example 228, (R)-1-((3-cyclopropyl-1-methyl-1H-pyrazol-5-yl)ethynyl)-4-ethyl-N-(1-methylcyclopropyl)-5-oxo-1,2,4,5-tetrahydroimidazo[1,2-a]quinazoline-7-sulfonamide]	> 7.00

Continued, values first:

pIC50	SMILES
> 7.00	CCN1C(=O)c2cc(S(=O)(=O)NC3(C)CC3)ccc2N2C1=NC[C@H]2C#Cc1cnn2cccnc12 [Example 190, (R)-4-ethyl-N-(1-methylcyclopropyl)-5-oxo-1-(pyrazolo[1,5-a]pyrimidin-3-ylethynyl)-1,2,4,5-tetrahydroimidazo[1,2-a]quinazoline-7-sulfonamide]
5.00 to 6.00	C[C@@H]1CN=C2N(Cc3cnn(C)c3)C(=O)c3cc(S(=O)(=O)NC4(C)CC4)cc(N4CC(C)(C#N)C4)c3N21 [Example 146, (R)-9-(3-cyano-3-methylazetidin-1-yl)-1-methyl-4-((1-methyl-1H-pyrazol-4-yl)methyl)-N-(1-methylcyclopropyl)-5-oxo-1,2,4,5-tetrahydroimidazo[1,2-a]quinazoline-7-sulfonamide]
6.00 to 7.00	CN1C(=O)c2cc(S(=O)(=O)NC3(C)CC3)ccc2N2C1=NCC2C#Cc1ccc2nccn2n1 (stereo not shown) [Example 176, 1-(imidazo[1,2-b]pyridazin-6-ylethynyl)-4-methyl-N-(1-methylcyclopropyl)-5-oxo-1,2,4,5-tetrahydroimidazo[1,2-a]quinazoline-7-sulfonamide]
> 7.00	[2H]C([2H])(c1cnn(C)c1)N1C(=O)c2cc(S(=O)(=O)NC3(C)CC3)ccc2N2C1=NC[C@H]2C#Cc1cccnn1 [Example 260, (R)-4-((1-methyl-1H-pyrazol-4-yl)methyl-d2)-N-(1-methylcyclopropyl)-5-oxo-1-(pyridazin-3-ylethynyl)-1,2,4,5-tetrahydroimidazo[1,2-a]quinazoline-7-sulfonamide]
> 7.00	Cn1cc(CN2C(=O)c3cc(S(=O)(=O)NC4(C)CC4)ccc3N3C2=NC[C@H]3COC2CC2)cn1 [Example 115, (S)-1-(cyclopropoxymethyl)-4-((1-methyl-1H-pyrazol-4-yl)methyl)-N-(1-methylcyclopropyl)-5-oxo-1,2,4,5-tetrahydroimidazo[1,2-a]quinazoline-7-sulfonamide]
